Source: PubChem BioAssay (NCI)
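Grown in 96-well plates, cells were treated for 48 hours with each compound at five concentrations. Insufficient inhibition: endpoint recorded as highest concentration tested. GI50 is the concentration that inhibits growth by half. TGI marks complete inhibition of growth.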

Key:
Experiment in all cases: NCI tumour cell line growth inhibition, 48 h
SN12K1 renal = tested on: SN12K1 renal
COLO 205 colon = tested on: COLO 205 colon
KM20L2 colon = tested on: KM20L2 colon
P388/ADR leukemia = tested on: P388/ADR leukemia
DLD-1 colon = tested on: DLD-1 colon
SNB-78 CNS = tested on: SNB-78 CNS
HOP-18 NSCLC = tested on: HOP-18 NSCLC
DMS 114 small cell lung = tested on: DMS 114 small cell lung
XF 498 CNS = tested on: XF 498 CNS
DMS 273 small cell lung = tested on: DMS 273 small cell lung
M19-MEL melanoma = tested on: M19-MEL melanoma
OVCAR-3 ovarian = tested on: OVCAR-3 ovarian
SK-MEL-28 melanoma = tested on: SK-MEL-28 melanoma
LXFL 529 NSCLC = tested on: LXFL 529 NSCLC
P388 leukemia = tested on: P388 leukemia
RXF-631 renal = tested on: RXF-631 renal

Row | Structure (SMILES) | TGI (COLO 205 colon) [µM] | TGI (OVCAR-3 ovarian) [µM] | TGI (SK-MEL-28 melanoma) [µM] | other results
1 | Cc1ccc2nc3c(C(=O)NCCN(C)C)cccc3cc2c1 | 3.25 | 5.83 | 6.67 | TGI (SN12K1 renal): 3.35 µM; TGI (KM20L2 colon): 5.58 µM; TGI (P388/ADR leukemia): 4.69 µM; TGI (DLD-1 colon): 8.85 µM; TGI (SNB-78 CNS): 15 µM; TGI (HOP-18 NSCLC): 5.76 µM; TGI (DMS 114 small cell lung): 5.32 µM; TGI (XF 498 CNS): 3.67 µM; TGI (DMS 273 small cell lung): 6.02 µM; TGI (M19-MEL melanoma): 4.66 µM
2 | COc1ccc(C2CCc3nc4nc(N)nc(N)c4cc3C2)cc1 (centres undefined) | > 100 | 43.9 | 65 | 
3 | CSc1ccc2c(c1)c(CCN)c(C)n2Cc1ccc(Cl)c(Cl)c1 |  | 3.15 | 3.17 | GI50 (OVCAR-3 ovarian): 1.7 µM; GI50 (SK-MEL-28 melanoma): 1.67 µM
4 | CCCS(=O)(=O)O | > 100 | > 100 | > 100 | 
5 | NC(=O)c1cnc2sc3ccccc3n2c1=O | > 100 | > 100 | > 100 | 
6 | CN(c1c(Cl)cccc1Cl)S(=O)(=O)c1ccccc1[N+](=O)[O-] | > 100 | > 100 | > 100 | 
7 | CN1CCc2c(sc3nc(Nc4ccccc4)n(N)c(=O)c23)C1 | > 100 | > 100 |  | 
8 | O=C(NC(=O)c1cn(CCN2CCNCC2)c(=O)[nH]c1=O)OCc1ccccc1 | > 100 | > 100 |  | TGI (LXFL 529 NSCLC): > 100 µM; TGI (DLD-1 colon): > 100 µM; TGI (SNB-78 CNS): > 100 µM; TGI (DMS 114 small cell lung): > 100 µM; TGI (M19-MEL melanoma): > 100 µM
9 | C#CCNC(=O)CCC(N)C(=O)O (centres undefined) | > 100 | > 100 | > 100 | TGI (SN12K1 renal): > 100 µM; TGI (KM20L2 colon): > 100 µM; TGI (P388/ADR leukemia): > 100 µM; TGI (DLD-1 colon): > 100 µM; TGI (SNB-78 CNS): > 100 µM; TGI (HOP-18 NSCLC): > 100 µM; TGI (DMS 114 small cell lung): > 100 µM; TGI (XF 498 CNS): > 100 µM; TGI (DMS 273 small cell lung): > 100 µM; TGI (M19-MEL melanoma): > 100 µM; TGI (P388 leukemia): > 100 µM
10 | O=C(N/N=C(/COc1cccc(Cl)c1)N=Cc1ccncc1)c1ccncc1 | > 100 | > 100 | > 100 | 
11 | CSC1=N/C(=C\c2cccs2)C(=O)N1CN1CCOCC1 | > 100 | > 100 | > 100 | 
12 | C1CNCCN2CCCNCCN(C1)CC2 | > 100 | > 100 | > 100 | 
13 | COc1ccc(-c2cc(-c3ccccc3)n(C3OC(COC(C)=O)C(OC(C)=O)C(OC(C)=O)C3OC(C)=O)c(=S)c2C#N)cc1 (centres undefined) | 23.4 | 23.5 | 25.1 | 
14 | O=[N+]([O-])c1cc2n[nH]nc2c2nonc12 | 71.5 | 95.1 | > 100 | 
15 | O=C(ON=c1c2ccccc2ccc2ccccc12)c1cc([N+](=O)[O-])cc([N+](=O)[O-])c1 | > 100 | > 100 | > 100 | 
16 | C=C1C(=O)OC2/C=C(\C)CC/C=C(/C)CC(OC(=O)/C(=C/CO)CO)C12 (centres undefined) | 33 | > 100 | 77.2 | 
17 | COC1/C=C\C=C(/C)C(=O)NC2=CC(=O)C=C(C2=O)C(OC)C(C)CC(OC)C(OC)C(C)/C=C(/C)C1OC(N)=O (centres undefined) | 11.4 | 7.23 | 19.8 | TGI (SN12K1 renal): 14.7 µM; TGI (KM20L2 colon): 17.2 µM; TGI (P388/ADR leukemia): 3.47 µM; TGI (DLD-1 colon): 8.02 µM; TGI (SNB-78 CNS): 17.2 µM; TGI (DMS 114 small cell lung): 10.1 µM; TGI (XF 498 CNS): 4.83 µM; TGI (DMS 273 small cell lung): 27.3 µM; TGI (M19-MEL melanoma): 18 µM

Row | Structure (SMILES) | TGI (COLO 205 colon) [µM] | TGI (OVCAR-3 ovarian) [µM] | TGI (SK-MEL-28 melanoma) [µM] | other results
18 | O=C(CSc1nc2ccc(I)cc2c(=O)n1Cc1ccccc1)N/N=C/c1ccccc1 | > 100 | 33.6 | > 100 | 
19 | COc1cc2c(cc1C)NC(=O)/C2=C/c1c(Cl)[nH]c2cc(C)c(OC)cc12 | 12.7 | 8.6 | 24 | 
20 | O=C1CCc2c3c(c4c([nH]c5ccccc54)c2CC1)C(=O)NC3=O | > 100 | > 100 | 12 | 
21 | CCN(CC)CCn1ncc2ccc3c(c(=O)c4cccnc4n3CCN(CC)CC)c21 | 1.46 | 4.12 | 4.01 | 
22 | Nc1[nH]c(=O)nc2sc3c(c12)CCCC3 | > 100 |  | > 100 | 
23 | O=c1oc2ncccc2n1Cc1ccc([N+](=O)[O-])cc1 | > 100 | > 100 | > 100 | 
24 | CN(C)C(=S)Nc1nnc(NC23CC4CC(CC(C4)C2)C3)s1 | 44.1 | 46.3 | 31.3 | TGI (KM20L2 colon): 24.8 µM; TGI (SNB-78 CNS): > 100 µM; TGI (DMS 114 small cell lung): 63.1 µM; TGI (DMS 273 small cell lung): 55.3 µM; TGI (M19-MEL melanoma): 43.6 µM
25 | Cc1nn2c(N)cc(=O)nc2nc1/C=C/c1ccc(N(C)C)cc1 | > 100 |  | > 100 | 
26 | CCOC(=O)c1ccc(N=C2SC(=S)N(c3ccc(F)cc3)C2=Nc2ccc(C(=O)OCC)cc2)cc1 | 40.3 | > 53.7 | 42.3 | 
27 | NC(CCCCCP(=O)(O)O)C(=O)O (centres undefined) | > 100 | > 100 | > 100 | 
28 | C=CCCCCOC1C=CC(OC(C)=O)C(COC(C)=O)O1 (centres undefined) | > 100 | > 100 | > 100 | 
29 | CCN(CC)CCN1c2ccccc2Sc2ccc3ccccc3c21 | 15.9 | 24.6 | 20.2 | 
30 | COC1/C=C/C(C)C(OC)CC(O)/C=C/C(C)C(C(C)C(OC)C(C)CCC(=O)C(C)C(C/C=C/N(C)C=O)OC)OC(=O)/C=C/C=C(\C)CC(OC)C(OC)C2=CC(=O)O[C@@H](C(C)C(OC)C1)[C@H]2O (some centres undefined) |  | 0.0489 | 0.121 | 
31 | CN(Cc1cnc2nc(N)nc(N)c2n1)c1ccc(C(=O)NC(CCS(=O)(=O)O)C(=O)O)cc1 (centres undefined) | > 100 | > 100 | > 100 | 
32 | O=C(N=Nc1ccc([N+](=O)[O-])cc1)NNc1ccc([N+](=O)[O-])cc1 |  | 59.2 | 36.2 | 
33 | NCCCNCCSSCc1ccccc1CSSCCNCCCN | > 100 | > 100 | > 100 | TGI (KM20L2 colon): > 100 µM; TGI (LXFL 529 NSCLC): > 100 µM; TGI (DLD-1 colon): > 100 µM; TGI (SNB-78 CNS): > 100 µM; TGI (HOP-18 NSCLC): > 100 µM; TGI (RXF-631 renal): > 100 µM; TGI (DMS 114 small cell lung): > 100 µM; TGI (XF 498 CNS): > 100 µM; TGI (DMS 273 small cell lung): > 100 µM; TGI (M19-MEL melanoma): > 100 µM
